Article PMC10507085, “Pharmacological inhibition of TBK1/IKKε blunts immunopathology in a murine model of SARS-CoV-2 infection” (Nature Communications, 2023)

How the values were obtained:
Experiment in all cases: biochemical
Set-up in all cases: KINOMEscan competition binding, DNA-tagged kinase against immobilised ligand, qPCR read-out
Conditions in all cases: read-out: Percent Control
MAPK8 = MAPK8 (Homo sapiens, UniProt P45983)
MGC42105 = target: T1, MGC42105 (Homo sapiens, UniProt Q8IY84)
T1 construct: gene NIM1K

STK35 = STK35 (Homo sapiens, UniProt Q8TDR2)
CAMKK1 = CAMKK1 (Homo sapiens, UniProt Q8N5S9)
DAPK3 = DAPK3 (Homo sapiens, UniProt O43293)
[1] = target: T2, RSK4(Kin.Dom.1-N-terminal) (Homo sapiens, UniProt Q9UK32)
T2 construct: gene RPS6KA6; Kin.Dom.1 N-terminal

CLK1 = CLK1 (Homo sapiens, UniProt P49759)
PRKD1 = PRKD1 (Homo sapiens, UniProt Q15139)
STK16 = STK16 (Homo sapiens, UniProt O75716)
CAMK1 = CAMK1 (Homo sapiens, UniProt Q14012)
[2] = target: T3, RSK2(Kin.Dom.2-C-terminal) (Homo sapiens, UniProt P51812)
T3 construct: gene RPS6KA3; Kin.Dom.2 C-terminal

MAP3K7 = MAP3K7 (Homo sapiens, UniProt O43318)
GRK7 = GRK7 (Homo sapiens, UniProt Q8WTQ7)
EPHA7 = EPHA7 (Homo sapiens, UniProt Q15375)
MAST1 = MAST1 (Homo sapiens, UniProt Q9Y2H9)
BRSK1 = BRSK1 (Homo sapiens, UniProt Q8TDC3)
CDK3 = CDK3 (Homo sapiens, UniProt Q00526)
AKT2 = AKT2 (Homo sapiens, UniProt P31751)
DDR1 = DDR1 (Homo sapiens, UniProt Q08345)
Chain of DDR1 (Q08345 whole entry): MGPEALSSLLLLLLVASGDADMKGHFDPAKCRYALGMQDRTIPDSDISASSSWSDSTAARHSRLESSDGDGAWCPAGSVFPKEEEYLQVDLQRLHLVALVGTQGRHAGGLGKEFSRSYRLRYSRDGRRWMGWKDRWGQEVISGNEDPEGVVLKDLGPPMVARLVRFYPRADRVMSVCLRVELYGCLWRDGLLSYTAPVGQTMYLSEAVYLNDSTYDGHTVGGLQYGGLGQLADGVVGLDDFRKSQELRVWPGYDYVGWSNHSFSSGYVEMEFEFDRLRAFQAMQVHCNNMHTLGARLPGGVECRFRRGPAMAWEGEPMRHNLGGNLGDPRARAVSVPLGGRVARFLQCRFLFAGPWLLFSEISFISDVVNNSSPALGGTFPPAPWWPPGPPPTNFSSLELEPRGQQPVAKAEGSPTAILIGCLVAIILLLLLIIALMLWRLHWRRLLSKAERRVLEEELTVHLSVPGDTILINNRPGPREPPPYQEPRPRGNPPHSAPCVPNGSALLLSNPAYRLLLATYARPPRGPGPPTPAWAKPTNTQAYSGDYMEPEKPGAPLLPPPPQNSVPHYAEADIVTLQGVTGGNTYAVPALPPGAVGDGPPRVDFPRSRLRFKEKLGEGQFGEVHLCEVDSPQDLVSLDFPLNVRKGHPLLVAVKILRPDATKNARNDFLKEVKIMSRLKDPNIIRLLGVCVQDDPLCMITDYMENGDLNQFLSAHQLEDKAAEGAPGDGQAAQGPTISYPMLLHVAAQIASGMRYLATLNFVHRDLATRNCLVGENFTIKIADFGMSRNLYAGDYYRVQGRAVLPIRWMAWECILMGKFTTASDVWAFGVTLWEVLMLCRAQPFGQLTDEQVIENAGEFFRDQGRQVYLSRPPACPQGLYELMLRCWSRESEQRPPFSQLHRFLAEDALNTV

Chain of STK35 (Q8TDR2 whole entry): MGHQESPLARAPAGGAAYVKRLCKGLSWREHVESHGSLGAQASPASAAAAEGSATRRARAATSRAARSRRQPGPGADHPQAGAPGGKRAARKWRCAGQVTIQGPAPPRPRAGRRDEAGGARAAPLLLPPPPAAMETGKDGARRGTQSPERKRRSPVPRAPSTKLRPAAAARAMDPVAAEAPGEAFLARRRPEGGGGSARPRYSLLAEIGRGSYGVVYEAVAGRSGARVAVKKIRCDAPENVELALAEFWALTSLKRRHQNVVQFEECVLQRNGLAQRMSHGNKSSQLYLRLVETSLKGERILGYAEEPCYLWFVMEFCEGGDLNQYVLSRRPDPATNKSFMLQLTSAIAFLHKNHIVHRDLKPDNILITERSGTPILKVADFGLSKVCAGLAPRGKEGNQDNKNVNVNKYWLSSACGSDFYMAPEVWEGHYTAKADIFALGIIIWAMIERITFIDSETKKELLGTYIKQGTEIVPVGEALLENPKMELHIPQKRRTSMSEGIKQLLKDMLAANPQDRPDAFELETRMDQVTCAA
Chain of BRSK1 (Q8TDC3 whole entry): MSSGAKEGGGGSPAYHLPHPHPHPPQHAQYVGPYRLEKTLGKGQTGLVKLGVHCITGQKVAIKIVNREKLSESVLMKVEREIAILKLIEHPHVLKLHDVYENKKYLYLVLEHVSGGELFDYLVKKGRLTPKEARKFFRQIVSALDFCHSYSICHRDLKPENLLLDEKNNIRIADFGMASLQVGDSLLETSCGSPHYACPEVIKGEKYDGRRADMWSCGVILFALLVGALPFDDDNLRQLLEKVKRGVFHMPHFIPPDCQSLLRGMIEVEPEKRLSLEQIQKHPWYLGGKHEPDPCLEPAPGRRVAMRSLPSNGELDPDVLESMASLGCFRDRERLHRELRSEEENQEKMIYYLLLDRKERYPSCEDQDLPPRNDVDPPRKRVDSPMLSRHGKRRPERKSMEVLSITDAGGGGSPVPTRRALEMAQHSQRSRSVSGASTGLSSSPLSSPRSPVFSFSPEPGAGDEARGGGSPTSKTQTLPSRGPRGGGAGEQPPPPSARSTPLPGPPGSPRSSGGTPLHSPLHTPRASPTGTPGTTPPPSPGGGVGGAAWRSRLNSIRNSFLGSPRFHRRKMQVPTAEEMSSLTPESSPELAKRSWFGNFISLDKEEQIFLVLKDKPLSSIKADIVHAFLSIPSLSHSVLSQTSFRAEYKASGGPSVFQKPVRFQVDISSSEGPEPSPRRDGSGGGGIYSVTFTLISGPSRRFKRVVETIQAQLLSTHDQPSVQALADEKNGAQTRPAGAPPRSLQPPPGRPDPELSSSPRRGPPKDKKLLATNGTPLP
Chain of CAMK1 (Q14012 whole entry): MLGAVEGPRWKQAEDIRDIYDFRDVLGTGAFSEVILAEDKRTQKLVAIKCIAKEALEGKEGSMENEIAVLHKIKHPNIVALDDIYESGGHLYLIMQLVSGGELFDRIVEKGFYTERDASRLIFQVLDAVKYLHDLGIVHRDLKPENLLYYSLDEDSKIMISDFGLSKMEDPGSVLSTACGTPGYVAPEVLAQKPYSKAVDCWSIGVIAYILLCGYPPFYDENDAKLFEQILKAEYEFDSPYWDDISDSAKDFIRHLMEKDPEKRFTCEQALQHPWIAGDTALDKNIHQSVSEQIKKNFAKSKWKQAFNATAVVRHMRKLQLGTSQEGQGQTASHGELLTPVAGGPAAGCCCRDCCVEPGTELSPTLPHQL
Chain of STK16 (O75716 whole entry): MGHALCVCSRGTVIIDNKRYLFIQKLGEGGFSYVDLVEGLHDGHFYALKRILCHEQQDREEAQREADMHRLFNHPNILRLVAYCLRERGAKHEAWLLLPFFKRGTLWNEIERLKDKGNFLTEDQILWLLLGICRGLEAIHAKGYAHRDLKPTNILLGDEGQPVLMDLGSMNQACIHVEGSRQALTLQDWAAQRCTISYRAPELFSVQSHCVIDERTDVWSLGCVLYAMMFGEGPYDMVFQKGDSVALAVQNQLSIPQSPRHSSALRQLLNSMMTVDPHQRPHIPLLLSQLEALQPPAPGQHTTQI
T2 sequence (Q9UK32 whole entry): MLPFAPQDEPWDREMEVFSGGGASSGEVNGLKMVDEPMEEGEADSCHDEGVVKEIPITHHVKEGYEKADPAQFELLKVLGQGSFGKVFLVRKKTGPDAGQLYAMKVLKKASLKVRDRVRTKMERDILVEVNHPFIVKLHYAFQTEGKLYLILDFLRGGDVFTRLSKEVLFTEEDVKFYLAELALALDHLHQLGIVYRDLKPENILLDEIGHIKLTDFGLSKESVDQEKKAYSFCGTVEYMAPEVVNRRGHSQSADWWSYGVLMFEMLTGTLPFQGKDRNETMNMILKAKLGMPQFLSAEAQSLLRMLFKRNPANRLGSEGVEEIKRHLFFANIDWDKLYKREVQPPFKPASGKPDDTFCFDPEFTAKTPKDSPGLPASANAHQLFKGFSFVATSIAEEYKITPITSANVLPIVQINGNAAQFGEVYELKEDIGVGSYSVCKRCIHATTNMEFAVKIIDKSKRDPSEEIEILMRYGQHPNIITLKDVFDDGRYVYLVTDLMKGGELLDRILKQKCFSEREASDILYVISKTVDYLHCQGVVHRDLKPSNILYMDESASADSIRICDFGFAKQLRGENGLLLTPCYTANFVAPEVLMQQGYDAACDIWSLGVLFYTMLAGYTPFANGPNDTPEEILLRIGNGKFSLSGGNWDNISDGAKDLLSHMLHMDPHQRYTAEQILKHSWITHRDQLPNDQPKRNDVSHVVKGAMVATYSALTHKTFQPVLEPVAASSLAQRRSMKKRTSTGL
Chain of GRK7 (Q8WTQ7 whole entry): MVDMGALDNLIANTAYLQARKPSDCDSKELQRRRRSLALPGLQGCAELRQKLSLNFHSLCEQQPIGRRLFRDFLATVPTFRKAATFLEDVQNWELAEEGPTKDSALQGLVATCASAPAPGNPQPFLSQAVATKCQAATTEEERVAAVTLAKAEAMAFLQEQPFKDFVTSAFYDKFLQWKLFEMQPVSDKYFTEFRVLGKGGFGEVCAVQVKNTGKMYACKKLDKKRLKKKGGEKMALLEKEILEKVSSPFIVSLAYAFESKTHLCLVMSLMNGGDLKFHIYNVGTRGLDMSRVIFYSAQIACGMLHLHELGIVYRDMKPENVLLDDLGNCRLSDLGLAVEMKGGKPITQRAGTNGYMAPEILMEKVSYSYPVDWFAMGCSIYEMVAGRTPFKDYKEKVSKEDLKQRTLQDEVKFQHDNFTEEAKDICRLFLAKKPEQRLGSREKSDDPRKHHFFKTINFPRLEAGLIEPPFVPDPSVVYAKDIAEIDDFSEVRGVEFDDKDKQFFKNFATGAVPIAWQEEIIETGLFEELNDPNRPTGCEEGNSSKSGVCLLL
T3 sequence (P51812 whole entry): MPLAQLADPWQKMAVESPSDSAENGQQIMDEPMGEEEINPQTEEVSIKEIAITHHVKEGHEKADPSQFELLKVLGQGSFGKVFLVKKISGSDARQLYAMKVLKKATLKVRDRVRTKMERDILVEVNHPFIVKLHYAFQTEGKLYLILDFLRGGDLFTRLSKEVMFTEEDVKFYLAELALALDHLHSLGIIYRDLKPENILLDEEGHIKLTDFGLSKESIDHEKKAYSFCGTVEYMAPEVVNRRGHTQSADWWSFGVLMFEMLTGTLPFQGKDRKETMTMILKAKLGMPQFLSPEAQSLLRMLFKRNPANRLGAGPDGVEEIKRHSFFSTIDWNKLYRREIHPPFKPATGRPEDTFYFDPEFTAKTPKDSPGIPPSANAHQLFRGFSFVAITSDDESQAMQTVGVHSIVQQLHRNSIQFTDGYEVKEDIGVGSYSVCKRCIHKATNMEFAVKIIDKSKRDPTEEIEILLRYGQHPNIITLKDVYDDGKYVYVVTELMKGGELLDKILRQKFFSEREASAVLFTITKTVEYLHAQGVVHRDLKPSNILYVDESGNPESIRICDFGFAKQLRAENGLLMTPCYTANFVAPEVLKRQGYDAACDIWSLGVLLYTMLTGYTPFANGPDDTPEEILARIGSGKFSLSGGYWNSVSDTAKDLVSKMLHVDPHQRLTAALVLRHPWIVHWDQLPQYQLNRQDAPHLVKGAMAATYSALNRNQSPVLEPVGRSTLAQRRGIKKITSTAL

Oc1ccc(C2=Cc3ccc(O)cc3OC2)cc1 [compound 1, idronoxil]
remaining binding at 10 µM (MAPK8): 68%
remaining binding at 10 µM (MGC42105): 93%
remaining binding at 10 µM (STK35): 88%
remaining binding at 10 µM (CAMKK1): 78%
remaining binding at 10 µM (DAPK3): 49%
remaining binding at 10 µM [1]: 94%
remaining binding at 10 µM (CLK1): 53%
remaining binding at 10 µM (PRKD1): 96%
remaining binding at 10 µM (STK16): 100%
remaining binding at 10 µM (CAMK1): 96%
remaining binding at 10 µM [2]: 95%
remaining binding at 10 µM (MAP3K7): 89%
remaining binding at 10 µM (GRK7): 100%
remaining binding at 10 µM (EPHA7): 96%
remaining binding at 10 µM (MAST1): 93%
remaining binding at 10 µM (BRSK1): 76%
remaining binding at 10 µM (CDK3): 89%
remaining binding at 10 µM (AKT2): 90%
remaining binding at 10 µM (DDR1): 87%
